In patent US8455523B2, “Compositions and methods for treating hyperlipidemias” (The Research Foundation of State University of New York, priority 2010, dated 2013):

System: C57Bl/6J mice fed either a chow or western diet
Experiment: MTP inhibitor BMS-212122-01 with or without lovastatin, pioglitazone or PBA in chow or western diet fed C57Bl/6J mice
Type: in vivo
Settings: for hepatic triglycerides: MTPi 1 mg/kg/day one week, lovastatin 50 or pioglitazone 25 mg/kg/day added to MTPi; for hepatic free cholesterol: lovastatin or pioglitazone co-administered with MTPi; for Hepatic free fatty acids (FFA): lovastatin or pioglitazone with MTPi; for hepatic total and free cholesterol / hepatic triglycerides compared to western diet fed controls / plasma lipids: drug alone, one week; for plasma ALT/AST levels: lovastatin added to MTPi
Description: FIG. 13. Age matched wildtype C57/Bl6J animals chow fed animals were treated with DMSO (control) or MTP inhibitor (MTPi) for one week. […] All drugs were administered by oral gavage. Animals were sacrificed on day 7 and plasma and livers were harvested and analyzed. * represent comparison to DMSO control; # represent comparisons to WD control; @ represent comparisons to WD MTP inhibitor treatment.
FIG. 18. Age matched wildtype C57/BL6J were fed WD for one month and were administered MTPi, or 4-phenylbutyric acid (PBA) everyday for one week. All drugs were administered by oral gavage. Animals were sacrificed on day 7 and livers were harvested. * represent comparison DMSO control; # represent comparisons to HF MTP inhibitor treated animals.
C57BL/6J Black 6 mice (stock number 000664) were obtained from Jackson Laboratory and used for chow fed and western diet fed experiments. MTP inhibitor (BMS […]) (1 mg/kg/day), Lovastatin, Pioglitazone (Toronto Research Chemicals P471000) (25 mg/kg/day) and 4-phenylbutyric acid (Calbiochem 820986) (1 g/kg/day) were administered by oral gavage. Chow fed animals were treated for one week with either DMSO or MTP inhibitor. Western diet fed animals were fed DMSO, MTP inhibitor, Pioglitazone, MTP inhibitor+Pioglitazone, Lovastatin, MTP inhibitor+Lovastatin, 4-phenylbutyric acid, and MTP inhibitor+4-phenylbutyric acid. Chow fed animals were also injected with either PBS or Tunicamycin and animals were sacrificed at 4, 8, 12 and 24 hours.
All animals were kept in 07:00-19:00 h lighting schedule. […] Food was withdrawn 16 h before the sacrifice of the mice. On the day of the experiment, mice were anesthetized and blood was collected from the heart. Liver was collected, washed in ice-cold PBS, cut into small pieces and used for lipid extraction, histological staining, to measure different protein activities/quantities and for mRNA analysis. Lipids were extracted from the tissue homogenates following the Bligh and Dyer method. Triglyceride (Infinity TM Triglyceride, TR22421) and total cholesterol (Infinity TM Cholesterol, TR13421) levels in the tissues were determined using commercial kits (Thermo Scientific). Free cholesterol and free fatty acid levels were measured using kits from Wako Chemicals (Germany). Esterified cholesterol was calculated by subtracting the free cholesterol from the total cholesterol.
We next studied the effects of chemical inhibition of MTP in C57Bl/6J mice fed either a chow or western diet (WD) for 5 weeks. Chow fed animals were orally gavaged with either DMSO or MTP inhibitor BMS-212122-01 (MTPi; 1 mg/kg/day) for one week. WD fed animals were treated with DMSO, MTP inhibitor with or without lovastatin (50 mg/kg/day) or pioglitazone (25 mg/kg/day) daily by oral gavage for one week.

Structure (SMILES)	hepatic triglycerides	hepatic free cholesterol (MTPi one week)	Hepatic free fatty acids (FFA) (MTPi one week)	hepatic total and free cholesterol (WD fed)	hepatic triglycerides compared to western diet fed controls (WD fed)	plasma lipids (WD fed)	rise in intestinal free cholesterol seen with MTPi alone (WD fed, in conjunction with MTPi)	Plasma FFA levels (high fat feeding, MTPi one week, co-drugs with MTPi)	hepatic triglycerides (listed as Lovastatin)	plasma ALT/AST levels (MTPi one week)	plasma ALT/AST levels (MTPi one week, listed as Lovastatin)	Cardiac tissue lipid profiles (WD fed, MTPi ± pioglitazone or lovastatin)	intestinal lipids (WD fed, with MTPi)
CCc1ccc(CCOc2ccc(CC3SC(=O)NC3=O)cc2)nc1 (racemic) [pioglitazone, (RS)-5-(4-[2-(5-ethylpyridin-2-yl)ethoxy]benzyl)thiazolidine-2,4-dione]	abrogated	reduced	resistant	decreased	slightly lower	no effect	attenuated	completely abrogated					
CC[C@H](C)C(=O)O[C@H]1C[C@@H](C)C=C2C=C[C@H](C)[C@H](CC[C@@H]3C[C@@H](O)CC(=O)O3)[C@H]21 [lovastatin]		reduced	resistant	decreased	no effect	no effect			without affecting	lowered	abrogated increases	no changes	no effect
